Test results reported in patent US20090170759A1, “NEUROPROTECTIVE PEPTIDES” (priority 2007, published 2009).
“Also recorded” adds a separate entry of the source.

System: spontaneous hypertensive rats
Assay: Experimental model of cerebral ischemia (tandem CCA/MCA occlusion), infarct volume
Assay type: in vivo, rat
Conditions: listed as EPO
Description: Male spontaneous hypertensive rats (Charles River) weighing between 250-300 g were weighed and then anesthetized with ketamine (100 mg/ml)/xylazine (20 mg/ml) cocktail (1.2 ml/kg; i.p.). The level of anesthetic was assessed by corneal reflex (air puff to eye) and leg jerk in response to tail or foot pinch. Once the rat was anesthetized, it was placed on a small animal surgical board and restrained during the surgical procedure. The rat's body temperature was monitored continuously with a rectal probe and maintained at 37° C. with a homeostatic heating pad.
Rats were rendered ischemic by tandem occlusion of the left common carotid artery and the left middle cerebral artery for 2 h followed by 22 h of reperfusion using a modification of the technique described by Brint and co-workers (J. Cereb Blood Flow Metab 8:474-485, 1988). Specifically, the left CCA was isolated through an incision in the ventral surface of the neck. […]
Study I: EPO and Vehicle Delivered Via Osmotic Mini-Pump • […] prior to the onset of ischemia, an osmotic mini-pump (Model 1003D; Alza) filled with vehicle or EPO was placed between the scapula of the rat. […] Twenty-two hours later, the rats were evaluated for behavioral performance, a blood sample was collected for terminal plasma levels of EPO and then the rat was euthanized, brain removed, sectioned and stained for histological analysis.
Study II: EPO and Vehicle Delivered as a Single Intravenous Bolus Injection • On Day One, the rats were rendered ischemic as described above. […] Twenty-two hours later, the rats were evaluated for behavioral performance, a blood sample was collected for terminal plasma levels of EPO and then the rat was euthanized, brain removed, sectioned and stained for histological analysis. […]

rhEPO: purified, recombinant human EPO (rhEPO), currently formulated and distributed under the trademarks of EPREX, ERYPO, or PROCRIT
infarct volume, Study I (132 or 1321 U/day continuous iv infusion via osmotic mini-pump, started before ischemia): significantly reduced infarct volume; also recorded: protects against ischemic injury | infarct volume, Study III (repeat iv bolus of 2500 U/kg at 15 min, 2 h, 4 h and 6 h post-occlusion): significant decrease in infarct volume; also recorded: protects against ischemic injury | ischemic damage, Study II (single iv bolus 15 min post-occlusion at 1000, 2500 or 5000 U/kg): did not protect against ischemic damage; also recorded: does not protect against ischemic injury
